This note sets out measurements from patent US20230322776A1, “NEW ARYL-PYRIDO-PYRIMIDIN-ONE DERIVATIVES” (Hoffmann-La Roche Inc., priority 2020, published 2023).

One assay has as its target BRAF V660E (Homo sapiens, UniProt P15056, V600E). In words: KD BRAF V660E (Table 1; no method described). In kind it is binding.
The target of a further assay is BRAF (Homo sapiens, UniProt P15056). Put plainly: KD BRAF (Table 1; no method described). In kind it is binding.
The subject of assay [1] is HCT116 cells (WT BRAF), ERK phospho-T202/Y204. In words: HTRF assay for P-ERK determination in HCT116 cells (BRAF activation, paradox). In kind it is cell-based. In short, it runs like this:
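HCT116 (WT BRAF) cells, 8000/well in DMEM + 10% FBS, treated 1 h with compound at 0.001–10 μM in duplicate; lysed, then HTRF antibodies for ERK phospho-T202/Y204, read after overnight dark incubation at room temperature. Blank-subtracted ratio normalized to DMSO (0%) and peak dabrafenib signal (100%); sigmoidal or bell-shaped fit gives % activation.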

For assay [2], the system named is A375 cells (V600E mutated BRAF), ERK phospho-T202/Y204. In words: HTRF assay for P-ERK determination in A375 cells (BRAF inhibition). Particulars: Homo sapiens, A-375, 1 hour drug incubation, DMSO = 100%, 10 μM Dabrafenib = 0%, top concentration 10 μM, read-out: P-ERK_A375: IC50. It is filed as cell-based. The gist of the method:
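A375 cells (V600E BRAF), 8000/well, treated 1 h with compounds at 0.001–10 μM final in duplicate; lysed and phospho-ERK (Thr202/Tyr204) read by HTRF at 665/620 nm after overnight RT incubation. Blank-subtracted ratios normalized to DMSO (100%) and 10 μM dabrafenib (0%); IC50 from sigmoidal fit.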
A general note: Time-resolved FRET reads energy transfer from a long-lived donor to a nearby acceptor.

As a reminder, the Kd is the concentration at which binding is half-saturated. The low end stands for tighter binding, the high end for weaker binding. Usually EC50 stands for the concentration giving half of the maximal effect. As usually defined, the IC50 is the concentration needed to halve the response being measured.

Chain of BRAF V660E (P15056 2-766 V600E): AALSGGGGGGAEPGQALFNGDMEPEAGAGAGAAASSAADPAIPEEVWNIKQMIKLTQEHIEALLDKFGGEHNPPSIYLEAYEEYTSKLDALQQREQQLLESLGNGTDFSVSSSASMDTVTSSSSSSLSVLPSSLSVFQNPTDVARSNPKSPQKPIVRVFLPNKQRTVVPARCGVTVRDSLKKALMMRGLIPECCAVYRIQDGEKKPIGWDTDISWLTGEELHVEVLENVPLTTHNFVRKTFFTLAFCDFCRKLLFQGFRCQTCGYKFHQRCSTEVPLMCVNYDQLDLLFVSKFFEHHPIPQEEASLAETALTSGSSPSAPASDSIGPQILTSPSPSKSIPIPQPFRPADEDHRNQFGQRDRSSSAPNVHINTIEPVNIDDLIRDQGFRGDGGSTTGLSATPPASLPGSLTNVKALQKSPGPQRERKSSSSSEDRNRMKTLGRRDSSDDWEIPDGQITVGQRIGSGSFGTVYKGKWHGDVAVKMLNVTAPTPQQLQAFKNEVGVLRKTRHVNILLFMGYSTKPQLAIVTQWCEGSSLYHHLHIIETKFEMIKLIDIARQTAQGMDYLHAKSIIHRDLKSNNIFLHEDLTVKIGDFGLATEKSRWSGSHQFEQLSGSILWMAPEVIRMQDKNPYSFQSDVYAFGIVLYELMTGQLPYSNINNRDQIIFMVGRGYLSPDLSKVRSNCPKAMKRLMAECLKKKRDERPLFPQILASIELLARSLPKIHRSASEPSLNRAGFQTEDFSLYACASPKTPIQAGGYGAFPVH
Chain of BRAF (P15056 whole entry): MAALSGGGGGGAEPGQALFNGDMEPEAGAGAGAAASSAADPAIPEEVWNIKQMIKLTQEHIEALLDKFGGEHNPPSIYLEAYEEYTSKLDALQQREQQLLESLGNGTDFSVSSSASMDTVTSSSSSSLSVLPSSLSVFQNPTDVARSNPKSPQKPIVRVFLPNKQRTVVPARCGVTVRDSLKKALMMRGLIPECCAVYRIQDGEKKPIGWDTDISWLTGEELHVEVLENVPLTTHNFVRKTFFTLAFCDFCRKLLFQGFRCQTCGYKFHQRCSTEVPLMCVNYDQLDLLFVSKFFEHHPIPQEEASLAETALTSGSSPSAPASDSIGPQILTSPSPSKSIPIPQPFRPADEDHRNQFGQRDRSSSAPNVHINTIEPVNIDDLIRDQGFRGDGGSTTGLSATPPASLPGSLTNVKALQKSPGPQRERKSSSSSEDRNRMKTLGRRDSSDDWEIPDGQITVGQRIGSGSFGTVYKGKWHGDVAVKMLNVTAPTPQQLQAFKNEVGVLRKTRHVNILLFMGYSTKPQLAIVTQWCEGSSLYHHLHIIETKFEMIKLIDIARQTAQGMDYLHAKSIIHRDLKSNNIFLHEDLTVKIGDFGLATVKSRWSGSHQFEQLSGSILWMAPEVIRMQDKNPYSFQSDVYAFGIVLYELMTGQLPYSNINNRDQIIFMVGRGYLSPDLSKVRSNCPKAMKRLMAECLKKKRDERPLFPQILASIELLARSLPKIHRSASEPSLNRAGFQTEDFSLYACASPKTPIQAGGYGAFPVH

Turning to `CC(=O)N1Cc2ccc(CCNc3ncc4cc(-c5c(F)ccc(NS(=O)(=O)N6CC[C@@H](F)C6)c5F)c(=O)n(C)c4n3)cc2C1` [Example 49, (3R)—N-[3-[2-[2-(2-Acetyl-1,3-dihydroisoindol-5-yl)ethylamino]-8-methyl-7-oxopyrido[2,3-d]pyrimidin-6-yl]-2,4-difluorophenyl]-3-fluoropyrrolidine-1-sulfonamide], the Kd at BRAF V660E was 6.5 nM; on BRAF it was 2.5 nM. Moreover, the half-maximal effective concentration (EC50) in assay [1] (Homo sapiens, HCT-116, HCT116 cells, 1 hour drug incubation, activation relative to maximum Dabrafenib-mediated activation (100%), top concentration 10 μM, read-out: P-ERK_HCT-116: EC50—50PCT) was determined as 989 nM. The “Fold Selectivity HCT-116 EC50-50/ A375” value in assay [1] (ratio of P-ERK HCT-116 EC50-50PCT to P-ERK A375 IC50) turned out to be 117.8. For the same molecule, in assay [2], the IC50 came out at 8.4 nM.
